Test results published in patent US20110076318A1, “RETINOID-CONTAINING SUSTAINED RELEASE INTRAOCULAR IMPLANTS AND RELATED MATTERS” (Allergan, Inc., priority 2004, published 2011).
Read-outs that look alike come from different tables or passages of the source.

Legend:
photoreceptors = assay: Rhodopsin mutant transgenic rat models of retinal degeneration; type: in vivo, Transgenic S334ter rats; settings: i.p., S334ter line 3 and line 4
Protocol: The objective of this study was to determine the efficacy of various retinoids in preventing retinal damage or improving retinal survival in rhodopsin mutant transgenic rat models of retinal degeneration. The overall goal of the research was to investigate potential photoreceptor survival in mutant rhodopsin transgenic rats using RAR α, RAR β γ, and RXR retinoid agonists.
The experimental design was straightforward. A compound was injected daily to line 3 and every two days for line 4 animals (i.p.) for a given period and animals were sacrificed at the end by CO2 overdose followed immediately by vascular perfusion of mixed aldehydes. Two litters of rats were used:
1. Transgenic S334ter-3 rats. Line 3 bears a rhodopsin mutation S334ter. […] Injection of a compound will be given daily from PD 6 (post-delivery day 6) to PD 20.
2. Transgenic S334ter-4 rats. Line 4 bears a rhodopsin mutation S334ter. Animals of this line experience a 80% loss of photoreceptors by 60 days after birth. The ONL is reduced to one row of nuclei. Injection of a compound will be given every other day from PD 25 to PD 60.
For the line 3 animals, treatment started at PD 6 and the endpoint was PD 20. For the line 4, injection began at PD 25 and ended at PD60 when eyes were harvested. Eyes were embedded in an Epon/Araldite mixture for sectioning at 1 μm thickness along the vertical meridian. Protection of photoreceptors was be evaluated by counting the rows of nuclei in the outer nuclear layer.
The outcome was a measure of retinal outer layer thickness, and cytology over an 8 week period. Compounds included the retinoid agonists tazarotene (RAR β γ), AGN 195183 (RAR α) and AGN 194204 (RXR). […] This is a fairly harsh model and as such the modest improvement by tazarotene is quite significant.

[1] = test system: PVR induced by human RPE cells; assay: PVR model with retinoid implants, Fastenberg scale; type: in vivo; settings: at 28 days; 10% loaded PLA/PLGA implants, intravitreal
Text: PLA and PLGA implants 1.5 mm in diameter and 3 mm in length were fabricated by extrusion of the polymer drug blend. Tazarotenic acid (the free acid of Tazarotene) Tazarotene and 13-cis-retinoic acid were loaded into the implants at 10% concentrations. Briefly, pigmented rabbits were vitrectomized followed by intravitreal injection of 500,000 human RPE cells. After injection of the RPE cells the retinoid implants were placed into the vitreous and anchored to the sclera with the suture used to close the sclerotomy.
The eyes were examined weekly for 4 weeks. Severity of PVR was graded based on the Fastenberg scale. At 4 weeks gross pathology and limited histopathology were conducted.

[2] = test system: traction retinal detachment (PVR); settings: cited from earlier work
PVR = settings: orally administered, retrospective study; cited from earlier work
RPE proliferation = settings: biphasic, read-out: IC50, prevention of RPE proliferation in-vitro (biphasic), cited from earlier work
[3] = cited from earlier work
[4] = Five to ten μg in a silicone oil tamponade

SMILES: CC1(C)CCC(C)(C)c2c1cc(C(=O)Nc1cc(F)c(C(=O)O)c(F)c1)c(O)c2Cl [AGN 195183]
- protection of photoreceptors (outer nuclear layer) (photoreceptors): Tazarotene was the only compound to show efficacy

SMILES: CC1=C(/C=C/C(C)=C/C=C/C(C)=C\C(=O)O)C(C)(C)CCC1 [Isotretinoin, 13-cis-retinoic acid]
- eyes progressed to traction retinal detachment [1]: 22%
- traction retinal detachment in animal model of PVR [2, 4]: effectively prevent traction retinal detachment
- effect on PVR and retinal attachment (PVR): effective at decreasing PVR and increasing the rate of retinal attachment

SMILES: CC(/C=C/[C@@H]1C[C@]1(C)c1ccc2c(c1)C(C)(C)CCC2(C)C)=C\C(=O)O [AGN 194204]
- protection of photoreceptors (outer nuclear layer) (photoreceptors): Tazarotene was the only compound to show efficacy

SMILES: CC1=C(/C=C/C(C)=C/C=C/C(C)=C/C(=O)O)C(C)(C)CCC1 [RA, All trans-retinoic acid]
- IC50 (RPE proliferation; first value): 0.01 nM
- IC50 (RPE proliferation; second value): 17 nM
- traction retinal detachment in animal model of PVR [2, 4]: effectively prevent traction retinal detachment
- traction retinal detachment in animal model of PVR ([2]; Ten and 15 μg in 1-% hyaluronic acid and BSS): reduced traction retinal detachment
- ocular toxicity by histopathology and ophthalmoscopic examination ([3]; five to ten μg in silicone oil): no ocular toxicity
- concentration well tolerated with no ERG changes ([3]; in vivo): up to 15 μg/mL
